The results in this text go back to patent US5948798A, “Pyridiniminyl-1,2-benzisoxazoles and -benzisothiazoles” (Hoechst Marion Roussel, Inc., priority 1997, dated 1999).

A word on the IC50: it is the concentration needed to halve the response being measured.

Assay [1] deals with T1, Monoamine Oxidase B (Rattus norvegicus, UniProt P19643).
T1 construct: serves as the tissue source for mitochondrial monoamine oxidase; from tissue; host or cells: male Wistar rat whole brain minus cerebellum, 18,000 g pellet (P2)
T1 sequence (P19643 1-520): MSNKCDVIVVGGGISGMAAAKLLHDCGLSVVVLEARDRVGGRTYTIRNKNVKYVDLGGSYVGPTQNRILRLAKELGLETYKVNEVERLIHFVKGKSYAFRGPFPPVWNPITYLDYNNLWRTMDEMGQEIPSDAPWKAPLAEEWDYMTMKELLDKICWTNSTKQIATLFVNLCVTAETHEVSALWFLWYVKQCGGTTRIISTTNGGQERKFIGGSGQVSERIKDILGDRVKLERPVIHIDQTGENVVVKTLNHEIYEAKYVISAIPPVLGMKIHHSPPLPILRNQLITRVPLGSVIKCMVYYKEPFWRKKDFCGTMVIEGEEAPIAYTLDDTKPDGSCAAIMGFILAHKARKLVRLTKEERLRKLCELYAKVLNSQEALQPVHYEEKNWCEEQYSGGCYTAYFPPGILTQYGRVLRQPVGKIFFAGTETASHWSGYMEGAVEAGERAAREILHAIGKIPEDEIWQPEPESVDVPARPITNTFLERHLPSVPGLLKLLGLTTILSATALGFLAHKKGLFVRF
Description: in vitro inhibition of monoamine oxidase assay (monoamine oxidase B). The assay is classed as biochemical, rat (male Wistar, whole brain minus cerebellum). The note with it: rat brain mitochondria, [14C]-phenethylamine 200 μM, pH 7.4, 37° C., 30 min; log-probit. From the text: (§1) In this assay, a modification of an assay described by M. V. Kindt, et al., Europ.
(§2) Male Wistar rats weighing 150-250 grams were sacrificed and the brains rapidly removed.

For assay [2], the target named is T2, Monoamine Oxidase A (Rattus norvegicus, UniProt P21396).
T2 construct: serves as the tissue source for mitochondrial monoamine oxidase; from tissue; host or cells: male Wistar rat whole brain minus cerebellum, 18,000 g pellet (P2)
T2 sequence (P21396 1-526): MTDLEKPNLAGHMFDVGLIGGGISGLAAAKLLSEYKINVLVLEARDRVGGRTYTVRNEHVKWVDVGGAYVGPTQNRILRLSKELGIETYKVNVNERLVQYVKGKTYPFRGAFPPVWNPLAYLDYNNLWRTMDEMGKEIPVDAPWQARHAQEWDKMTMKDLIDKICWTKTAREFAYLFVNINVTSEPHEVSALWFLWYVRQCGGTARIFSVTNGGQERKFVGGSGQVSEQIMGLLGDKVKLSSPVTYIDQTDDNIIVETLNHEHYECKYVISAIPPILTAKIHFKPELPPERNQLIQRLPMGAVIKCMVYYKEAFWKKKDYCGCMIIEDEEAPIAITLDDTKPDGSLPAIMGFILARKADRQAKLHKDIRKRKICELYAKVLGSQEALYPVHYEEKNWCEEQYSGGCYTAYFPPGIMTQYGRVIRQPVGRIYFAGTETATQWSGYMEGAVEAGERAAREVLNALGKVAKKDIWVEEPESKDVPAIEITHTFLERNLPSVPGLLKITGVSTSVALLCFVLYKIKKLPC
Description: in vitro inhibition of monoamine oxidase assay (monoamine oxidase A). The assay is classed as biochemical, rat (male Wistar, whole brain minus cerebellum). The note with it: rat brain mitochondria, [3H]-5-hydroxytryptamine 200 μM, pH 7.4, 37° C., 30 min; log-probit.
From the text: as §1, §2

Assay [3] deals with T3, Acetylcholinesterase (Rattus norvegicus, UniProt P37136).
T3 construct: corpora striata dissected free, weighted and homogenized in 19 volumes; from tissue; host or cells: male Wistar rat corpora striata, homogenate
T3 sequence (P37136 32-614): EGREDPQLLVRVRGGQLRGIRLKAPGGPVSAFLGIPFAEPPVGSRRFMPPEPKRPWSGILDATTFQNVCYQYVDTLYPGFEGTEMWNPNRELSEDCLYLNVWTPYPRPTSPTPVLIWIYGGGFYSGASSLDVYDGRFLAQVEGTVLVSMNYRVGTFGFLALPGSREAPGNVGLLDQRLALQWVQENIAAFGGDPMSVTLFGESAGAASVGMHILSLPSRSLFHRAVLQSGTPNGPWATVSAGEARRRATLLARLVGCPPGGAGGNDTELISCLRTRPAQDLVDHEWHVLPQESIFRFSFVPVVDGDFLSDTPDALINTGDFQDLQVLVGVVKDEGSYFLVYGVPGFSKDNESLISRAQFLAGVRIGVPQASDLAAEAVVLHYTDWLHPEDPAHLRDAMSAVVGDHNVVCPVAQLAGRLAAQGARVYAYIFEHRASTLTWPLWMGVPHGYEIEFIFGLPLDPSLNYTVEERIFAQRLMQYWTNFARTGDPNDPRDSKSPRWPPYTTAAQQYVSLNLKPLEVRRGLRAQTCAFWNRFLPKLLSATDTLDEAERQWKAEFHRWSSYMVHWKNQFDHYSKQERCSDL
Description: in vitro inhibition of acetylcholinesterase assay. The assay is classed as biochemical, rat (male Wistar, corpora striata). On the procedure: 1. 0.05M Phosphate Buffer (pH 7.2)
A solution of monobasic sodium phosphate monohydrate (6.85 g) in distilled water (100 mL) is added to a solution of dibasic sodium phosphate heptahydrate (13.4 g) and distilled water (100 mL) until a pH of 7.2 was attained. The solution was diluted 1 to 10 with distilled water.
3. 5,5-Dithiobisnitrobenzoic acid in Buffer
The 0.05M Phosphate Buffer (pH 7.2) was added to 5.5-dithiobisnitrobenzoic acid to a total volume of 100 mL. i.e., a quantity sufficient (gs) to 100 mL.
4. Stock Solution of Drug
A 2 millimolar stock solution of the test drug is prepared in a quantity sufficient of either acetic acid or dimethyl sulfoxide to volume with 5,5-Dithiobisnitrobenzene Acid in Buffer. Stock Solution of Drug is serially diluted (1:10) so that the final cuvette concentration is 10^-4 molar.
Male Wistar rats are decapitated, brains rapidly removed, corpora striata dissected free, weighted and homogenized in 19 volumes (approximately 7 mg protein/mL) of 0.05M phosphate Buffer (pH 7.2) using a Potter-Elvehjem homogenizer. A 25 μl aliquot of this suspension is added to 1 mL of the vehicle or various concentrations of the test drug and preincubated for 10 minutes at 37° C. Enzyme activity is measured with a Beckman DU-50 spectrophotometer with the following software and instrument settings:
6. Cuvettes--2 mL cuvettes using auto 6-sampler;
7. Blank--1 for each substrate concentration;
8. Interval time--15 seconds (15 or 30 seconds for kinetics);
9. Total time--5 minutes (5 to 10 minutes for kinetics);
13. Results--yes (gives slope); and
Reagents are added to the blank and sample cuvettes as follows: […]
Blank 0.8 mL 5.5-Dithiobisnitrobenzoic Acid
0.8 mL Substrate in Buffer
2. Control 0.8 mL 5.5-Dithiobisnitrobenzoic Acid/Enzyme
3. Drug 0.8 mL 5.5-Dithiobisnitrobenzoic Acid/Drug/Enzyme
Blank values are determined for each run to control for non-enzymatic hydrolysis of substrate and these values are automatically subtracted by the Kindata program available on kinetics soft-pac module. This program also calculates the rate of absorbance change for each cuvette.
Substrate concentration is 10 millimolar diluted 1:2 in assay yielding final concentration of 5 millimolar. 5,5-Dithiobisnitrobenzoic acid concentration is 0.5 millimolar yielding 0.25 millimolar final concentration. [formula]
IC50 values are calculated from log-probit analysis

Counter-ions that a name gives are not always drawn. Like-named read-outs stand apart in the source and are kept apart here.

On to `c1ccc(CCn2ccc(=Nc3noc4ccccc34)cc2)cc1` [3-[1-(2-Phenylethyl)-N-4(1H)-pyridiniminyl]-1,2-benzisoxazole hydrobromide], for which the half-maximal inhibitory concentration (IC50) in assay [1] was found to be 15.9 µM; in assay [2], 3 µM.

Compound `c1ccc(CCCn2ccc(=Nc3noc4ccccc34)cc2)cc1` [3-[1-(3-Phenylpropyl)-N-4(1H)-pyridiniminyl]-1,2-benzisoxazole hydrobromide] registered an IC50 in assay [3] of 650 nM.

As to `Fc1ccc(Cn2ccc(=Nc3noc4ccccc34)cc2)cc1` [3-[1-(4-Fluorophenyl)methyl-N-4(1H)-pyridiniminyl]-1,2-benzisoxazole hydrobromide], the IC50 in assay [3] (rat corpora striata homogenate, pH 7.2, acetylthiocholine 5 mM final, 10 min preincubation at 37° C., log-probit, read-out: Inhibition of Acetylcholinesterase Activity IC50) was 440 nM.

On to `c1ccc(Cn2ccc(=Nc3noc4ccccc34)cc2)cc1` [3-[1-Phenylmethyl-N-4(1H)-pyridiniminyl]-1,2-benzisoxazole hydrobromide], for which the IC50 is 33.7 µM in assay [1], 9 µM in assay [2] and 280 nM in assay [3].

As for `CCCn1ccc(=Nc2noc3cc(Cl)ccc23)cc1` [6-Chloro-3-]1-propyl-N-4(1H)pyridiniminyl]-1,2-benzisoxazole hydrochloride], the results for the IC50 in assay [1] and in assay [2] were 27.2 µM and 1.65 µM, respectively.

On to `COc1ccc2c(N=c3ccn(Cc4ccccc4)cc3)noc2c1` [6-Methoxy-3-[1-phenylmethyl-N-4(1H)-pyridiniminyl]-1,2-benzisoxazole hydrobromide], for which the 50% inhibitory concentration (IC50) in assay [1] is 25.2 µM; in assay [2], 3 µM; in assay [3] it was 90 nM.
